Values of other authors, collected in US5837715A, “3-fluoro-4-aminopiperidine derivatives as 5-HT receptor agonists” (Merck Sharp & Dohme Ltd., priority 1997, dated 1998).

Key:
[1] = system: human 5-HT1D.sbsb.α and 5-HT1D.sbsb.β receptor subtypes; conditions: cf. WO-A-91/17174, Table 1
[2] = humans, therapeutic doses

discrimination between the human 5-HT1D.sbsb.α and 5-HT1D.sbsb.β receptor subtypes [1]: barely discriminates
SMILES: CNS(=O)(=O)Cc1ccc2[nH]cc(CCN(C)C)c2c1 [sumatriptan]
adverse cardiovascular events [2]: certain adverse cardiovascular events
